Experimental data as given in ChEMBL document CHEMBL1154196, “Synthesis and evaluation of (S,S)-N,N'-bis-[3-(2,2',6,6'-tetramethylbenzhydryloxy)-2-hydroxy-propyl]-ethylenediamine (S2824) analogs with anti-tuberculosis activity” (2009).
In brackets after ≈: the same amount, converted by molar mass.

Assays:
[1] = system: Mycobacterium tuberculosis; assay: Antitubercular activity against isoniazid, rifampin-resistant Mycobacterium tuberculosis by radiometric BACTEC460 method; format: functional
[2] = system: Mycobacterium tuberculosis; assay: Antitubercular activity against isoniazid, rifampin, ethambutol, streptomycin-resistant Mycobacterium tuberculosis by radiometric BACTEC460 method; format: functional

CC[C@@H](CO)NCCN[C@@H](CC)CO [ETHAMBUTOL]
MIC [1]: 3.13 mg/L (≈ 15.3 µM)
MIC [2]: > 12.5 mg/L

Cc1ccc(C(OC[C@@H](O)CN2CCCN(C[C@H](O)COC(c3ccc(C)cc3)c3ccc(C)cc3)CC2)c2ccc(C)cc2)cc1
MIC [1]: 1.56 mg/L (≈ 2.45 µM)
MIC [2]: 0.78 mg/L (≈ 1.22 µM)

Cc1ccc(C(OC[C@H](O)CN2CCCN(C[C@@H](O)COC(c3ccc(C)cc3)c3ccc(C)cc3)CC2)c2ccc(C)cc2)cc1
MIC [1]: 1.56 mg/L (≈ 2.45 µM)
MIC [2]: 1.56 mg/L (≈ 2.45 µM)

Cc1ccc(C(OC[C@H](O)CN2CCN(C[C@@H](O)COC(c3ccc(C)cc3)c3ccc(C)cc3)CC2)c2ccc(C)cc2)cc1
MIC [1]: 6.25 mg/L (≈ 10 µM)
MIC [2]: 6.25 mg/L (≈ 10 µM)
